In publication PMC3674138 (Clinical cancer research : an official journal of the …, 2013):
Read-outs that look alike come from different tables or passages of the source.

How the values were obtained:
[1] = tested on: basal cell carcinoma (BCC); conditions: oral 150 mg daily, cited from earlier work
clinical [2] = conditions: human, in vivo, 150 mg, AUC0–168
[3] = high permeability, low solubility; cited from earlier work
[4] = Unbound vismodegib plasma concentration; type: in vivo, human; conditions: for unbound vismodegib concentrations: after daily dosing 150 mg, mean ± SD
advanced solid tumors = assay: Anticancer activity by RECIST 1.1 in advanced solid tumor patients; type: in vivo, human
clinical [5] = conditions: human, in vivo, 150 mg, AUC0–24
[6] = Adverse events at least possibly related to vismodegib during daily dosing; type: in vivo, human
[7] = cited from earlier work
[8] = 46 patients evaluable for response, 150 mg daily
[9] = all patients during daily dosing (both groups)

## CS(=O)(=O)c1ccc(C(=O)Nc2ccc(Cl)c(-c3ccccn3)c2)c(Cl)c1 [vismodegib]
[1]; locally advanced BCC
  response rate: 43%
[1]; metastatic BCC
  response rate: 30%
Clinical [2]
  AUC(0-t): 417 µg·h/mL
[3]
  Biopharmaceutics Classification System class: 2
[4]; fasting group
  unbound vismodegib concentrations: 79 ± 53 ng/mL
[4]; fed group
  unbound vismodegib concentrations: 103 ± 49 ng/mL
[4]; daily dosing, fasting and fed groups
  Steady-state unbound drug concentrations as share of total concentrations: less than 1%
Advanced solid tumors; [8]
  objective responses (RECIST 1.1): no objective responses
  patients with stable disease: Nine
Advanced solid tumors; patients with stable disease, longest in a patient with BCC
  range of duration of stable disease: 8 to 152 weeks
Clinical [5]
  AUC(0-t): 239 µg·h/mL
[6]; Fasting (n=31), 150 mg daily
  Alopecia, All grades (%): 4 (13) n (%)
  Anorexia, All grades (%): 9 (29) n (%)
  Diarrhea, All grades (%): 4 (13) n (%)
  Dizziness, All grades (%): 3 (10) n (%)
  Dysgeusia, All grades (%): 8 (26) n (%)
  Dyspnea, All grades (%): 3 (10) n (%)
  Fatigue, All grades (%): 11 (35) n (%)
  Fatigue, Grade 3 (%): 2 (6) n (%)
  Hyperglycemia, All grades (%): 2 (6) n (%)
  Hyperkalemia, All grades (%): 1 (3) n (%)
  Hypophosphatemia, All grades (%): 3 (10) n (%)
  Hypophosphatemia, Grade 3 (%): 1 (3) n (%)
  Myalgia, All grades (%): 6 (19) n (%)
  Nausea, All grades (%): 10 (32) n (%)
  Vomiting, All grades (%): 4 (13) n (%)
  Weight loss, All grades (%): 5 (16) n (%)
[6]; Fed (n=30), 150 mg daily
  Alopecia, All grades (%): 1 (3) n (%)
  Anorexia, All grades (%): 13 (43) n (%)
  Diarrhea, All grades (%): 3 (10) n (%)
  Dizziness, All grades (%): 2 (7) n (%)
  Dysgeusia, All grades (%): 13 (43) n (%)
  Fatigue, All grades (%): 11 (37) n (%)
  Fatigue, Grade 3 (%): 1 (3) n (%)
  Hyperglycemia, All grades (%): 1 (3) n (%)
  Hyperkalemia, All grades (%): 1 (3) n (%)
  Hyperkalemia, Grade 3 (%): 1 (3) n (%)
  Myalgia, All grades (%): 7 (23) n (%)
  Nausea, All grades (%): 9 (30) n (%)
  Neutropenia, All grades (%): 1 (3) n (%)
  Neutropenia, Grade 3 (%): 1 (3) n (%)
  Vomiting, All grades (%): 3 (10) n (%)
  Weight loss, All grades (%): 2 (7) n (%)
[6]; [9]
  anorexia, any grade, frequency: 36%
  dysgeusia, any grade, frequency: 34%
  fatigue, Grade 3, frequency: 5%
  fatigue, any grade, frequency: 36%
  hyperkalemia, Grade 3, frequency: 2%
  hypophosphatemia, Grade 3, frequency: 2%
  nausea, any grade, frequency: 31%
  neutropenia, Grade 3, frequency: 2%

## CS(=O)(=O)CCNCc1ccc(-c2ccc3ncnc(Nc4ccc(OCc5cccc(F)c5)c(Cl)c4)c3c2)o1 [lapatinib]
[7]
  increase in exposure (area-under-the-curve; AUC) with food: 150%
